# Data published in publication PMC11643494, “Structure–Activity Relationship Studies in a Series of 2-Aryloxy-N-(pyrimidin-5-yl)acetamide Inhibitors of SLACK Potassium Channels” (Molecules, 2024).
# Target: T1, GIRK 1/2 (Homo sapiens, UniProt P48051+P48549)
# T1 construct: expressed in transfected cells; host or cells: HEK293
# Experiment: Tl+-flux assay in HEK-293 cells, GIRK 1/2
# Type: cell-based
# Conditions: HEK293; 10 µM test compound; relative to control SCH23390; read-out: Percent Inhibition ± SEM, GIRK 1/2
# Source text: Having executed our plan to prepare analogs across the identified regions of the chemotype (Figure 2), we identified two analogs for further profiling and evaluation. […] Desiring to add a second compound with some measure of structural differences, we also chose another submicromolar SLACK inhibitor 66 (VU0936154). Whereas 40 contains an ether linker and a halogenated phenyl group in the eastern region, […] contains an N-methyl linker and a phenyl group with a more polar cyano substituent. We first screened these analogs at 10 µM versus our in-house panel of ion channel targets using Tl^+-flux assays in HEK-293 cells expressing the human target of interest. […] Included in this set are Slo family members SLICK and two isoforms of Maxi-K, as well as several different K^+, Na^+, and Ca^2+ channels (Table 6). […] Of note was the excellent selectivity versus the broader panel of targets for both compounds, including versus the hERG channel.
# Stably transfected monoclonal HEK293 cell lines expressing SLICK, Maxi-K α1/β3, Maxi-K α1/β4, CaV3.2, GIRK 1/2, KV2.1, KV7.2, NaV1.7, and TASK-1 were generated as previously described. […]
# The Tl^+ flux assays were conducted as previously described, with modifications optimized for individual cell lines as described below. […] Cell plates were then loaded onto a Panoptic kinetic imaging plate reader (WaveFront Biosciences, Franklin, TN, USA). […]
# T1 sequence (P48549 whole entry): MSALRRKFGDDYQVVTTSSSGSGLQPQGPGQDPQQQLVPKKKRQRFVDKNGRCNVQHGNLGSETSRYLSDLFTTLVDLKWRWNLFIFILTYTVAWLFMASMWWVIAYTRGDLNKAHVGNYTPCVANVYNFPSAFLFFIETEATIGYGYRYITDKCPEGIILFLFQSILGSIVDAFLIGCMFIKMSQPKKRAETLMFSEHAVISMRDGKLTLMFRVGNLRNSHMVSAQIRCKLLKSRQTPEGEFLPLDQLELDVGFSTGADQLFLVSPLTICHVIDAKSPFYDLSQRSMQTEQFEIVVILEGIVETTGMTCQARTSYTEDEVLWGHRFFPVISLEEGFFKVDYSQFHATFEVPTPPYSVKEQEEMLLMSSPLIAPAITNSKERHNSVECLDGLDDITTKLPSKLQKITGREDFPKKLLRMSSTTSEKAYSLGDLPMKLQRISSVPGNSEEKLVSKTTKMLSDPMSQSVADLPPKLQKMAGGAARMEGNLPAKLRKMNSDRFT
# T1 sequence (P48051 whole entry): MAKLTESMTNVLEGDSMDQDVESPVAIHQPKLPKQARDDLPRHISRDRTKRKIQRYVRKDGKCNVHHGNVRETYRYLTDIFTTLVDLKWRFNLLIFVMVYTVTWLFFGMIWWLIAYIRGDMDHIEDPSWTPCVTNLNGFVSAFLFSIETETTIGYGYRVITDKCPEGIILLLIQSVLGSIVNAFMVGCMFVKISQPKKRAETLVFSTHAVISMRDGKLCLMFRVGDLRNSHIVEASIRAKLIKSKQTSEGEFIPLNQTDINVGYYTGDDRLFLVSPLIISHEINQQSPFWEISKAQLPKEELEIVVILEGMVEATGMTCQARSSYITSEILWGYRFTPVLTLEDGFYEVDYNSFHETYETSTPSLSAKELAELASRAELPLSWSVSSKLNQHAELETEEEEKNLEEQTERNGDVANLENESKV
row,SMILES,inhibition at 10 µM [%]
1,CN(c1ccc(C#N)cc1)c1ncc(NC(=O)C(C)(C)Oc2ccc(Cl)cc2)cn1 [Analog 66],6.4 ± 1.5
2,CC(C)(Oc1ccc(Cl)cc1)C(=O)Nc1cnc(Oc2c(F)cccc2F)nc1 [Analog 40],6.8 ± 3.3
